Test results: patent US10399932B2, “Inhibitors of indoleamine-2,3-dioxygenase for the treatment of cancer” (BRISTOL-MYERS SQUIBB COMPANY, priority 2015, dated 2019)

target: human IDO1 (Homo sapiens, UniProt P14902); test: Assessment of human IDO-1 inhibitory activity in Hela cells (Interferon-gamma activated, Ehrlich reagent, absorbance at 490 nm); type: cell-based; parameters: endogenous in cells; host or cells: HeLa cells stimulated with interferon-gamma; details: 18 hours
Method: Exemplary compounds were tested for inhibition of IDO activity.
HeLa cells were seeded at 20,000 cells per 30 µL per well with RPMI/phenol red free media containing 10% FBS in a 384-well tissue culture plate (black with clear bottoms). 50 nL of compound was added to cells and incubated at 37° C. for one hour. 20 μL of the recombinant human Interferon-gamma (R&D System, Cat. #285-IF, at final concentration of 10 ng/ml) or recombinant murine Interferon-gamma (PEPROTECH® Inc., Cat. #315-05, final concentration of 5 ng/ml) was added to activate IDO signaling. The cells were incubated for 18 hours in 37° C. incubator with 5% CO2.
Compound treatment was stopped by adding 5 μl trichloroacetic acid to a final concentration of 3%. Subsequently, the cell plate was further incubated at 50° C. for 30 minute. An equal volume supernatant (20 μL) and 2% (w/v) Ehrlich reagent (4-dimethylaminobenzaldehyde) in glacial acetic acid were mixed in a new clear bottom 384-well plate. This plate was incubated at room temperature for 30 minutes. Absorbance at 490 nm was measured on Envision plate reader.
Compound IC50 values were calculated using counts from unstimulated (no INF-gamma treatment) wells as 100% inhibition. INF-gamma treatment without compound treatment as 0% inhibition.

Sequence of human IDO1 (P14902 whole entry): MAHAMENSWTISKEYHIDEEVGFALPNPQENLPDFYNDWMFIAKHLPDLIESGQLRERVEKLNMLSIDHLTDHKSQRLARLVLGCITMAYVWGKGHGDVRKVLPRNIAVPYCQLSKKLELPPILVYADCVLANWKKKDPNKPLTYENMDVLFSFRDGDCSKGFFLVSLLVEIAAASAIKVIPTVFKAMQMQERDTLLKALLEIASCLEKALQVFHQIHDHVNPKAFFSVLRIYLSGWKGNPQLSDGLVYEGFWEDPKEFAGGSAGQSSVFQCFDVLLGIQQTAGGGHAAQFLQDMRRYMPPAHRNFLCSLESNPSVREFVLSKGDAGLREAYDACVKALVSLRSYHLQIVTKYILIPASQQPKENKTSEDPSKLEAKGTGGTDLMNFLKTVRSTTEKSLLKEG

Compound | IC50 [nM]
CCOc1ncc(Nc2cc(C(COC)CC(=O)O)ccc2N2CCOC[C@H]2C(C)C)cn1 (single isomer, unassigned) [Example 938] | > 50
CCOc1ncc(Nc2cc(C(CC)CC(=O)O)ccc2N2CCNCC2)cn1 (single isomer, unassigned) [Example 673] | > 50
(S)-3-(4-(ethyl(tetrahydro-2H-pyran-4-yl)amino)-3-((2-(tetrahydro-2H-pyran-4-yl)pyrimidin-5-yl)amino)phenyl)-4-methoxybutanoic acid [Example 366] | > 50
CCOc1ncc(Nc2cc(C(CC(=O)O)C3CC3)ccc2N2C[C@@H](C)O[C@@H](C)C2)cn1 (stereo partly drawn) [Example 250, 3-cyclopropyl-3-(4-((2R,6S)-2,6-dimethylmorpholino)-3-((2-ethoxypyrimidin-5-yl)amino)phenyl) propanoic acid] | > 50
CCC1COCCN1c1ccc([C@H](COC)CC(=O)O)cc1Nc1cnc(OC)nc1 (single isomer, unassigned) [Example 1306] | > 50
CCC1COCCN1c1ccc([C@H](COC)CC(=O)O)cc1Nc1ccc(C#N)cn1 (single isomer, unassigned) [Example 1305] | > 50
CCN(c1ccc(C(CC(=O)O)C2CC2)cc1NC(=O)Nc1ccc(C#N)cc1)C1CCOCC1 (single isomer, unassigned) [Example 255 Enantiomer 2, 3-(3-(3-(4-Cyanophenyl)ureido)-4-(ethyl(tetrahydro-2H-pyran-4-yl)amino)phenyl)-3-cyclopropylpropanoic acid] | > 50
CCC(CC(=O)O)c1ccc(N(CC)C2CCN(Cc3ccccc3)CC2)c(Nc2ccc(C#N)cc2)c1 (single isomer, unassigned) [Example 943, 3-(4-((1-benzylpiperidin-4-yl)(ethyl)amino)-3-((4-cyanophenyl)amino)phenyl) pentanoic acid] | < 5
COCC(CC(=O)O)c1ccc(N2C[C@@H](C)O[C@@H](C)C2)c(Nc2ccc(C#N)cc2)c1 (single isomer, unassigned) [602 E2] | > 50
COCC(CC(=O)O)c1ccc(NC2CCOCC2)c(Nc2ccc(C#N)cc2)c1 (single isomer, unassigned) [Example 928 E2, 3-(3-((4-Cyanophenyl)amino)-4-((tetrahydro-2H-pyran-4-yl)amino)phenyl)-4-methoxybutanoic acid] | > 50
COCCN(c1ccc(C(COC)CC(=O)O)cc1NC(=O)Nc1ccc(C)cc1)C1CCOCC1 (single isomer, unassigned) [Example 261 Enantiomer 2, 4-Methoxy-3-(4-((2-methoxyethyl)(tetrahydro-2H-pyran-4-yl)amino)-3-(3-(p-tolyl)ureido)phenyl)butanoic acid] | > 50
CCOc1ncc(Nc2cc([C@@H](COC)CC(=O)O)ccc2N2CCOCC2CC)cn1 (single isomer, unassigned) [Example 1299] | > 50
CCCN(c1ccc(C(CC)CC(=O)O)cc1NC(=O)Nc1ccc(C)cc1)C1CCS(=O)(=O)CC1 (single isomer, unassigned) [Example 14 Enantiomer 2, 3-(4-((1,1-Dioxidotetrahydro-2h-thiopyran-4-yl)(propyl)amino)-3-(3-(p-tolyl)ureido)phenyl)pentanoic acid] | > 50
CCC1COCCN1c1ccc([C@@H](COC)CC(=O)O)cc1Nc1ccc(C#N)c(F)c1 (single isomer, unassigned) [Example 1296] | > 50
COCC(CC(=O)O)c1ccc(N2CCOC(C)C2)c(Nc2ccc(C#N)cc2)c1 (single isomer, unassigned) [Example 1313] | > 50
(R)-3-(4-((1,1-dioxidotetrahydro-2H-thiopyran-4-yl)(ethyl)amino)-3-((2-methoxypyrimidin-5-yl)amino)phenyl)-4-isopropoxybutanoic acid [Example 332] | > 50

Other lines, results leading:

IC50 [nM] | Compound
< 5 | CCN(c1ccc([C@H](COC)CC(=O)O)cc1Nc1cccc(OC(F)(F)C(F)F)c1)C1CCOCC1 [Example 398, (R)-3-(4-(ethyl(tetrahydro-2H-pyran-4-yl)amino)-3-((3-(1,1,2,2-tetrafluoroethoxy)phenyl)amino)phenyl)-4-methoxybutanoic acid]
< 50 | CCCN(c1ccc(C(CC)CC(=O)O)cc1Nc1cnc(OCC)nc1)C1CCS(=O)(=O)CC1 (single isomer, unassigned) [Example 13 Enantiomer 2, 3-(4-((1,1-Dioxidotetrahydro-2h-thiopyran-4-yl)(propyl)amino)-3-((2-ethoxypyrimidin-5-yl)amino)phenyl)pentanoic acid]
< 5 | CCOc1ncc(Nc2cc(C(CC)CC(=O)O)cc(F)c2N(CC)C2CCOCC2)cn1 (single isomer, unassigned) [Example 139, 3-(3-((2-ethoxypyrimidin-5-yl)amino)-4-(ethyl (tetrahydro-2H-pyran-4-yl)amino)-5-fluorophenyl)pentanoic acid]
> 50 | CCN(c1ccc([C@@H](COC)CC(=O)O)cc1NC(=O)Nc1ccc(C#N)cc1)C1CCOCC1 [Example 422 E1, (S)-3-(3-(3-(4-Cyanophenyl)ureido)-4-(ethyl(tetrahydro-2H-pyran-4-yl)amino)phenyl)-4-methoxybutanoic acid]
< 50 | 3-(4-((1,1-dioxidotetrahydro-2H-thiopyran-4-yl)(ethyl)amino)-3-((4-fluorophenyl)amino)phenyl)-4-isopropoxybutanoic acid [Example 340]
< 5 | CCCN(c1ccc(C(COC)CC(=O)O)cc1Nc1ccc(F)cc1)C1CCS(=O)(=O)CC1 (single isomer, unassigned) [Example 186, 3-(4-((1,1-dioxidotetrahydro-2H-thiopyran-4-yl)(propyl)amino)-3-((4-fluorophenyl)amino)phenyl)-4-methoxybutanoic acid]
< 50 | (R)-3-(3-((4-cyano-3-methylphenyl)amino)-4-(ethyl(tetrahydro-2H-pyran-4-yl)amino)phenyl)-4-methoxybutanoic acid [Example 391]
< 5 | CCOc1ncc(Nc2cc(C(CC)CC(=O)O)c(F)cc2N(CC)C2CCOCC2)cn1 (single isomer, unassigned) [Example 865, 3-(5-((2-ethoxypyrimidin-5-yl)amino)-4-(ethyl (tetrahydro-2H-pyran-4-yl)amino)-2-fluorophenyl) pentanoic acid]
< 5 | CCC(CC(=O)O)c1cc(F)c(N(CC)C2CCOCC2)c(Nc2ccc(C#N)cn2)c1 (single isomer, unassigned) [Example 143, 3-(3-((5-cyanopyridin-2-yl)amino)-4-(ethyl (tetrahydro-2H-pyran-4-yl)amino)-5-fluorophenyl)pentanoic acid]
< 50 | CCN(c1ccc([C@@H](COC)CC(=O)O)cc1Nc1ccc(C#N)c(OC)c1)C1CCOCC1 [Example 380]
> 50 | CCN(c1ccc(C(COC)CC(=O)O)cc1Nc1ccc(C#N)cc1)C1CCS(=O)(=O)CC1 (single isomer, unassigned) [Example 169, 3-(3-((4-cyanophenyl)amino)-4-((1,1-dioxidotetrahydro-2H-thiopyran-4-yl)(ethyl)amino)phenyl)-4-methoxybutanoic acid]
< 5 | CCC(CC(=O)O)c1ccc(N(CC)C2CCS(=O)(=O)CC2)c(Nc2ccc(Cl)cc2)c1 (single isomer, unassigned) [Example 334 Enantiomer 2, 3-(3-((4-Chlorophenyl)amino)-4-((1,1-dioxidotetrahydro-2H-thiopyran-4-yl)(ethyl)amino)phenyl)pentanoic acid]
< 50 | COCCN(c1ccc(C(COC)CC(=O)O)cc1Nc1ccc(F)cc1)C1CCOCC1 (single isomer, unassigned) [Example 260, 3-(3-((4-fluorophenyl)amino)-4-((2-methoxyethyl)(tetrahydro-2H-pyran-4-yl)amino)phenyl)-4-methoxybutanoic acid]
< 5 | CCN(c1cc(F)c([C@@H](COC)CC(=O)O)cc1Nc1ccc(Cl)cc1)C1CCOCC1 (single isomer, unassigned) [Example 844, 3-(5-((4-Chlorophenyl)amino)-4-(ethyl(tetrahydro-2H-pyran-4-yl)amino)-2-fluorophenyl)-4-methoxybutanoic acid]
< 5 | COCC(CC(=O)OC)c1ccc(N(CC(F)F)C2CCOCC2)c(Nc2ccc(Cl)cc2)c1 (stereo not shown) [Example 319, methyl 3-(3-((4-chloro-phenyl)amino)-4-((2,2-difluoroethyl) (tetrahydro-2H-pyran-4-yl)amino)phenyl)-4-methoxy-butanoate]
< 5 | COCC(CC(=O)O)c1cc(F)c(N(CC(C)C)CC(C)C)c(Nc2ccc(Cl)cc2)c1 (single isomer, unassigned) [Example 921, 3-(3-((4-Chlorophenyl)amino)-4-(diisobutylamino)-5-fluorophenyl)-4-methoxybutanoic acid]
< 5 | CCC(CC(=O)O)c1ccc(N(CC)C2CCCOC2)c(Nc2ccc(C#N)cc2)c1 (single isomer, unassigned) [Example 64, 3-(3-((4-cyanophenyl)amino)-4-(ethyl (tetrahydro-2H-pyran-3-yl)amino)phenyl)pentanoic acid]
< 5 | CCC(CC(=O)O)c1ccc(N(C)C2CCOCC2)c(Nc2ccc(Cl)cc2)c1 (single isomer, unassigned) [Example 937, 3-(3-((4-chlorophenyl)amino)-4-(methyl(tetrahydro-2H-pyran-4-yl)amino)phenyl) pentanoic acid]
